PMC10058310 (Science Advances, 2023)

How the values were obtained:
[1] = system: recombinant SARS2 encoding A173V M^pro; type: cell-based, SARS-CoV-2; details: read-out: IC50 (95% CI)
[2] = system: recombinant SARS2 encoding ∆P168/A173V M^pro; type: cell-based, SARS-CoV-2; details: read-out: IC50 (95% CI)
[3] = system: SARS2 M^pro P168G; details: cited from earlier work
[4] = system: recombinant SARS2 encoding ∆P168 M^pro; test: microbe, parasite or virus in culture; type: cell-based; details: […], A549-hACE2 cells
[5] = target: T1, SARS2 M^pro P168S (Severe acute respiratory syndrome coronavirus 2, UniProt P0DTD1, P3431S); type: cell-based, SARS-CoV-2
[6] = target: SARS2 M^pro M49I (Severe acute respiratory syndrome coronavirus 2, UniProt P0DTD1, M3312I); details: cited from earlier work
[7] = target: T1, SARS2 M^pro P168S; details: cited from earlier work

Compound | IC50 [1] [nM] | IC50 [2] [nM] | effect of amino acid change on inhibitor susceptibility [3] | other results
Cn1cnc(Cn2c(=O)[nH]/c(=N\c3cc4cn(C)nc4cc3Cl)n(Cc3cc(F)c(F)cc3F)c2=O)n1 [Ensitrelvir, ensitrelvir] | 7.8 | 3.3 |  | 
CC(C)C[C@H](NC(=O)OCc1ccccc1)C(=O)N[C@@H](C[C@@H]1CCNC1=O)C(O)S(=O)(=O)[O-].[Na+] (stereo partly drawn) [GC376] |  |  | no effect | 
CC(C)(C)[C@H](NC(=O)C(F)(F)F)C(=O)N1C[C@H]2[C@@H]([C@H]1C(=O)N[C@H](C#N)C[C@@H]1CCNC1=O)C2(C)C [Nirmatrelvir, nirmatrelvir] | 36 |  |  | 
CCC(CC)COC(=O)[C@H](C)N[P@](=O)(OC[C@H]1O[C@@](C#N)(c2ccc3c(N)ncnn23)[C@H](O)[C@@H]1O)Oc1ccccc1 [Remdesivir, remdesivir] | 1300 | 1500 |  | Fold change in antiviral EC50 [4]: 0.9 fold; Fold change in antiviral EC50 ([4]; listed as remdesivir): none of the mutants alter susceptibility
CC(C)(C)NC(=O)N[C@H](C(=O)N1C[C@H]2[C@@H]([C@H]1C(=O)NC(CC1CCC1)C(=O)C(N)=O)C2(C)C)C(C)(C)C (stereo partly drawn) [boceprevir] |  |  | improve susceptibility | fold increase in susceptibility [5]: 5.5 fold; effect of substitution on inhibitor susceptibility [6]: little effect; effect of amino acid change on inhibitor susceptibility [7]: improve susceptibility
